Laboratory results reported in US7361659B2, “Pyrrazolo-pyrimidine derivatives” (Hoffmann-La Roche Inc., priority 2005, dated 2008).

Key:
[1] = target: T1, rat mGlu2 receptor (Rattus norvegicus, UniProt P31421); experiment: [3H]-LY354740 binding on mGlu2 transfected CHO cell membranes; settings: 10 nM [3H]-LY354740, membranes of CHO cells transfected with rat mGlu2, room temperature, 1 hour
T1 construct: expressed in transfected cells; membranes prepared
Text: [^3H]-LY354740 Binding on mGlu2 Transfected CHO Cell Membranes. Transfection and Cell Culture
cDNA encoding the rat mGlu2 receptor protein in pBluescript II was subcloned into the eukaryotic expression vector pcDNA I-amp from Invitrogen Ltd (Paisley, UK). This vector construct (pcD1mGR2) was co-transfected with a psvNeo plasmid encoding the gene for neomycin resistance, into CHO cells by a modified calcium phosphate method described by Chen & Okayama (1988). The cells were maintained in Dulbecco's Modified Eagle medium with reduced L-glutamine (2 mM final concentration) and 10% dialysed foetal calf serum from Gibco-Invitrogen (Carlsbad, Calif., USA). Selection was made in the presence of G-418 (1000 ug/ml final) and […]. Clones were identified by reverse transcription of 5 μg total RNA, followed by PCR mGlu2 receptor specific primers 5′-[…]-3′ and 5′-[…]-3′in 60 mM Tris HCl (pH 10), 15 mM (NH4)2SO4, 2 mM MgCl2, 25 units/ml Taq Polymerase with 30 cycles annealing at 60° C. for 1 min., extention at 72° C. for 30 s, and 1 min. 95° C. denaturation.
Cells, cultured as above, were harvested and washed three times with cold PBS and frozen at −80° C. The pellet was resuspended in cold 20 mM HEPES-NaOH buffer containing 10 mM EDTA (pH 7.4), and homogenised with a polytron (Kinematica, AG, Littau, Switzerland) for 10 s at 10 000 rpm. After centrifugation for 30 min. at 4° C., the pellet was washed once with the same buffer, and once with cold 20 mM HEPES-NaOH buffer containing 0.1 mM EDTA, (pH 7.4). Protein content was measured using the micro BCA method from Pierce-Perbio (Rockford, Ill., USA) using bovine serum albumin as standard.
After thawing, the membranes were resuspended in cold 50 mM Tris-HCl buffer containing 2 mM MgCl2 (pH 7) (binding buffer). The final concentration of the membranes in the assays was 25 μg protein/ml. Inhibition experiments were performed with membranes incubated with 10 nM [^3H]-LY354740 at room temperature, for 1 hour, in presence of various concentrations of the compound to be tested. Following the incubations, membranes were filtered onto Whatmann GF/B glass fiber filters and washed 5 times with cold binding buffer. Non specific binding was measured in the presence of 10 μM DCG IV. After transfer of the filters into plastic vials containing 10 ml of Ultima-gold scintillation fluid from Perkin-Elmer(Boston, Mass., USA), the radioactivity was measured by liquid scintillation in a Tri-Carb 2500 TR counter (Packard, Zürich, Switzerland).
The inhibition curves were fitted with a four parameter logistic equation giving IC50 values, and Hill coefficients.

T1 sequence (P31421 19-872): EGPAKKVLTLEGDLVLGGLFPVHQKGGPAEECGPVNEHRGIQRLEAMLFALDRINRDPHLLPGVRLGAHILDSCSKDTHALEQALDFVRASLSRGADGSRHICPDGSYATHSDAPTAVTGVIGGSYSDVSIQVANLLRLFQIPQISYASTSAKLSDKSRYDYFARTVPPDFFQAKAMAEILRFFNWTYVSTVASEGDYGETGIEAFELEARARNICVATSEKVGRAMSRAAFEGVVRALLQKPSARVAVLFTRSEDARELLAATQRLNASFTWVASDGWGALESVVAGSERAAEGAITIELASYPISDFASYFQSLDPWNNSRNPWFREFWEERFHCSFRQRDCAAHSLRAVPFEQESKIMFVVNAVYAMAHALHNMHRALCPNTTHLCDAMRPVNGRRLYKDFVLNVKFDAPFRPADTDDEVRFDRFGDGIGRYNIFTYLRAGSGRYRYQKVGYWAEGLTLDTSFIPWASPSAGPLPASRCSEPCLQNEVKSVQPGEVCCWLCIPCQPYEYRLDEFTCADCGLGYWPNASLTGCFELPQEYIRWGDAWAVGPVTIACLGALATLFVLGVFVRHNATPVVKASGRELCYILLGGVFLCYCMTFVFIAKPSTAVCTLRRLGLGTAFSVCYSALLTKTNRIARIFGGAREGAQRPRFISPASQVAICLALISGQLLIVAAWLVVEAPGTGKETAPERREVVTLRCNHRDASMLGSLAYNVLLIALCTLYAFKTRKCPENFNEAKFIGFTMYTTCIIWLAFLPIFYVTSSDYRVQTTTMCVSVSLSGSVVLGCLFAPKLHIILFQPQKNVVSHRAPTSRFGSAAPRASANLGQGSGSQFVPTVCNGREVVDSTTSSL

SMILES	melting point	Ki [1]
NS(=O)(=O)c1nnc(NC(=O)c2cnn3c(C(F)F)cc(-c4ccc(C(F)(F)F)cc4)nc23)s1 [Example 3, 7-Difluoromethyl-5-(4-trifluoromethyl-phenyl)-pyrazolo[1,5-a]pyrimidine-3-carboxylic acid (5-sulfamoyl-[1,3,4]thiadiazol-2-yl)-amide]	284 °C	142 nM
O=C(Nc1cc(S(=O)(=O)N(CCO)CCO)sc1Cl)c1cnn2c(C(F)(F)F)cc(-c3ccc(C(F)(F)F)cc3)nc12 [Example 35, 7-Trifluoromethyl-5-(4-trifluoromethyl-phenyl)-pyrazolo[1,5-a]pyrimidine-3-carboxylic acid {5-[bis-(2-hydroxy-ethyl)-sulfamoyl]-2-chloro-thiophen-3-yl}-amide]	217 °C	27 nM
O=C(Nc1cc(S(=O)(=O)N(CCO)CCO)sc1Cl)c1cnn2c(C(F)F)cc(-c3ccc(C(F)(F)F)cc3)nc12 [Example 34, 7-Difluoromethyl-5-(4-trifluoromethyl-phenyl)-pyrazolo[1,5-a]pyrimidine-3-carboxylic acid {5-[bis-(2-hydroxy-ethyl)-sulfamoyl]-2-chloro-thiophen-3-yl}-amide]	216 °C	

More lines, in order of falling Ki [1], values ahead:

melting point	Ki [1]	SMILES
275 °C	6.9 nM	NS(=O)(=O)c1cc(NC(=O)c2cnn3c(C(F)(F)F)cc(-c4ccc(C(F)(F)F)cc4)nc23)c(Cl)s1 [Example 2, 7-Trifluoromethyl-5-(4-trifluoromethyl-phenyl)-pyrazolo[1,5-a]pyrimidine-3-carboxylic acid (2-chloro-5-sulfamoyl-thiophen-3-yl)-amide]
303 °C	2.5 nM	Cc1nc(NC(=O)c2cnn3c(C(F)(F)F)cc(-c4ccc(C(F)(F)F)cc4)nc23)sc1S(N)(=O)=O [Example 8, 7-Trifluoromethyl-5-(4-trifluoromethyl-phenyl)-pyrazolo[1,5-a]pyrimidine-3-carboxylic acid (4-methyl-5-sulfamoyl-thiazol-2-yl)-amide]
